From patent publication US20210053957A1, “HERBICIDAL COMPOUNDS” (SYNGENTA PARTICIPATIONS AG, priority 2018, published 2021) come the findings set out here.

Holding throughout (experiment): Post-emergence efficacy, glasshouse spray test
Type in all cases: in vivo

In experiment [1] the test system is Amaranthus palmeri (AMAPA). The note with it: Application Rate 500 g/Ha, evaluated after 13 days; for pest or weed control at 500 g/ha: Amaranthus palmeri, post-emergence, 312 h, read-out: Control of weed species after post-emergence application, AMAPA (100=total damage to plant; 0=no damage to plant). The method in brief: (§1)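 Sow in standard soil; grow 14 d at 24/16° C, 14 h light, 65% humidity; spray aqueous dilution of IF50 formulation; return to glasshouse, water twice daily; score injury 0–100 at day 13.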

In experiment [2] the test system is Chenopodium album (CHEAL). The note with it: Application Rate 500 g/Ha, evaluated after 13 days; for pest or weed control at 500 g/ha: Chenopodium album, post-emergence, 312 h, read-out: Control of weed species after post-emergence application, CHEAL (100=total damage to plant; 0=no damage to plant). The method in brief: as §1
The subject of experiment [3] is Digitaria sanguinalis (DIGSA). The note with it: Application Rate 500 g/Ha, evaluated after 13 days; for pest or weed control at 500 g/ha: Digitaria sanguinalis, post-emergence, 312 h, read-out: Control of weed species after post-emergence application, DIGSA (100=total damage to plant; 0=no damage to plant). A digest of the protocol:
as §1

Experiment [4] deals with Echinochloa crus-galli (ECHCG). The settings on record: Application Rate 500 g/Ha, evaluated after 13 days; for pest or weed control at 500 g/ha: Echinochloa crus-galli, post-emergence, 312 h, read-out: Control of weed species after post-emergence application, ECHCG (100=total damage to plant; 0=no damage to plant). A digest of the protocol:
as §1

Experiment [5] deals with Eleusine indica (ELEIN). The settings on record: Application Rate 500 g/Ha, evaluated after 13 days; for pest or weed control at 500 g/ha: Eleusine indica, post-emergence, 312 h, read-out: Control of weed species after post-emergence application, ELEIN (100=total damage to plant; 0=no damage to plant). The method in brief:
as §1

The subject of experiment [6] is Euphorbia heterophylla (EPHHL). The settings on record: Application Rate 500 g/Ha, evaluated after 13 days; for pest or weed control at 500 g/ha: Euphorbia heterophylla, post-emergence, 312 h, read-out: Control of weed species after post-emergence application, EPHHL (100=total damage to plant; 0=no damage to plant). A digest of the protocol: as §1
Experiment [7] relates to Ipomoea hederacea (IPOHE). The note with it: Application Rate 500 g/Ha, evaluated after 13 days; for pest or weed control at 500 g/ha: Ipomoea hederacea, post-emergence, 312 h, read-out: Control of weed species after post-emergence application, IPOHE (100=total damage to plant; 0=no damage to plant). A digest of the protocol:
as §1

Experiment [8] concerns Lolium perenne (LOLPE). The settings on record: Application Rate 500 g/Ha, evaluated after 13 days; for pest or weed control at 500 g/ha: Lolium perenne, post-emergence, 312 h, read-out: Control of weed species after post-emergence application, LOLPE (100=total damage to plant; 0=no damage to plant). The method in brief: as §1
For experiment [9], the system named is Setaia fabei (SETFA). The note with it: Application Rate 500 g/Ha, evaluated after 13 days; for pest or weed control at 500 g/ha: Setaria faberi, post-emergence, 312 h, read-out: Control of weed species after post-emergence application, SETFA (100=total damage to plant; 0=no damage to plant). A digest of the protocol: as §1

As to `O=S(=O)([O-])CC[n+]1ccc(-c2ccsn2)cn1` [Compound A105], the pest or weed control at 500 g/ha is 90% in experiment [1]; 90% in [2]; 100% in experiment [3]; 80% in experiment [4]; 90% in [5]; 100% in [6]. Further, the pest or weed control at 500 g/ha in experiment [7] is 70%; in experiment [8], 70%; in experiment [9], 90%.

`COP(=O)(O)CC[n+]1ccc(-c2ncco2)cn1` [Compound A106]: the pest or weed control at 500 g/ha in experiment [1] stood at 10%; in experiment [2] it was 0%; in experiment [3], 80%; in experiment [4], 40%; in experiment [5] it was 20%; in experiment [6] it was 60%. For the same compound, the pest or weed control at 500 g/ha was found to be 20% in experiment [7], 0% in experiment [8] and 50% in [9].

Regarding `CC(C)(CC(=O)O)[n+]1ccc(-c2ncco2)cn1` [Compound A107], the pest or weed control at 500 g/ha stood at 100% in experiment [1]; 50% in experiment [2]; 70% in [3]; 40% in [4]; 30% in experiment [5]; 30% in experiment [6]. In addition, the pest or weed control at 500 g/ha in [7] amounted to 20%; in [8] it was 20%; in experiment [9], 50%.

As for `COP(=O)(CC[n+]1ccc(-c2ncco2)cn1)OC.O=C([O-])C(F)(F)F` [Compound A108], the “Control of weed species after post-emergence application, AMAPA (100=total damage to plant; 0=no damage to plant)” value in [1] is on record as 20. Besides, in [2], the “Control of weed species after post-emergence application, CHEAL (100=total damage to plant; 0=no damage to plant)” value was 20. In addition, the “Control of weed species after post-emergence application, DIGSA (100=total damage to plant; 0=no damage to plant)” value in experiment [3] is on record as 60. In addition, in [4], the “Control of weed species after post-emergence application, ECHCG (100=total damage to plant; 0=no damage to plant)” value was 30. The “Control of weed species after post-emergence application, ELEIN (100=total damage to plant; 0=no damage to plant)” value in experiment [5] came out at 20. In addition, the “Control of weed species after post-emergence application, EPHHL (100=total damage to plant; 0=no damage to plant)” value in [6] amounted to 30. Also, the “Control of weed species after post-emergence application, IPOHE (100=total damage to plant; 0=no damage to plant)” value in [7] amounted to 30. The “Control of weed species after post-emergence application, LOLPE (100=total damage to plant; 0=no damage to plant)” value in experiment [8] amounted to 10. The “Control of weed species after post-emergence application, SETFA (100=total damage to plant; 0=no damage to plant)” value in experiment [9] came out at 30.

For the compound `N[C@@H](CC[n+]1ccc(-c2ncco2)cn1)C(=O)O` [Compound A110], the pest or weed control at 500 g/ha was 90% in experiment [1]; 80% in [2]; 90% in experiment [3]; 100% in experiment [4]; 100% in experiment [5]; 40% in [6]. For the same compound, the results for the pest or weed control at 500 g/ha in [7], in [8] and in experiment [9] were 20%, 20% and 80%, respectively.

As to `O=C(O)CC[n+]1ccc(-c2nccs2)cn1` [Compound A111], the pest or weed control at 500 g/ha in experiment [1] stood at 90%; in [2] it was 90%; in experiment [3], 100%; in experiment [4], 100%; in [5] it was 100%; in experiment [6], 90%. Also, the pest or weed control at 500 g/ha in experiment [7] was 70%; in [8] it was 90%; in [9], 100%.

For the compound `COC(=O)CC[n+]1ccc(-c2nccs2)cn1` [Compound A112], the pest or weed control at 500 g/ha in experiment [1] is 50%; in experiment [2], 60%; in experiment [3] it was 90%; in experiment [4], 50%; in experiment [5] it was 90%; in experiment [6] it was 50%. Further, the pest or weed control at 500 g/ha in experiment [7] came out at 20%; in experiment [8], 30%; in [9], 60%.
